“Also recorded” adds a separate entry of the source.
Experiments:
[1] = molecular target: SARS-CoV-2 PL^pro (Severe acute respiratory syndrome coronavirus 2, UniProt P0DTD1); assay: biochemical
[2] = system: DENV protease; settings: enzyme concentration 1 μM; cited from earlier work
[3] = system: WNF protease; settings: cited from earlier work

| Molecule | Effect of reducing agent on PLpro inhibition (in words) [1] | IC50 [1] [nM] | IC50 [2] [nM] | IC50 [3] [nM] |
| --- | --- | --- | --- | --- |
| Sc1ncc2[nH]cnc2n1 [2-MP, 2-mercaptopurine] | diminished; also recorded: significantly increases the IC50 values | 820 ± 600 |  |  |
| Sc1ncnc2nc[nH]c12 [6-MP, 6-mercaptopurine] |  | ~66000 |  |  |
| CCN(CC)C(=S)SSC(=S)N(CC)CC [Antabuse] | significantly increases the IC50 values |  |  |  |
| Aprotinin |  |  | 65 | 20 |

Reference: PMC8270262 (Molecules, 2021)
